What all share (format): functional
For assay [1], the system named is Escherichia coli. As to the kind of experiment: Antibacterial activity against Escherichia coli ATCC 25922 incubated for 18 hrs by visual inspection method.
Assay [2] relates to Staphylococcus epidermidis. As to the kind of experiment: Antibacterial activity against Staphylococcus epidermidis ATCC 12228 incubated for 18 hrs by visual inspection method.
In assay [3] the test system is Staphylococcus aureus. As to the kind of experiment: Antibacterial activity against Staphylococcus aureus ATCC 25923 incubated for 18 hrs by visual inspection method.
Assay [4] relates to Bacillus subtilis. In words: Antibacterial activity against Bacillus subtilis ATCC 23857 incubated for 18 hrs by visual inspection method.
Assay [5] has as its system Acinetobacter baumannii. In words: Antibacterial activity against Acinetobacter baumannii ATCC 19606 incubated for 18 hrs by visual inspection method.
The subject of assay [6] is Klebsiella pneumoniae. In words: Antibacterial activity against Klebsiella pneumoniae ATCC 700603 incubated for 18 hrs by visual inspection method.
Assay [7] has as its system Acinetobacter baumannii. In words: Antibacterial activity against multidrug resistant Acinetobacter baumannii 1 incubated for 18 hrs by visual inspection method.
In assay [8] the test system is Acinetobacter baumannii. In words: Antibacterial activity against multidrug resistant Acinetobacter baumannii 5 incubated for 18 hrs by visual inspection method.
The subject of assay [9] is Acinetobacter baumannii. As to the kind of experiment: Antibacterial activity against multidrug resistant Acinetobacter baumannii 2 incubated for 18 hrs by visual inspection method.
Assay [10] has as its system Escherichia coli. As to the kind of experiment: Antibacterial activity against ESBL Escherichia coli 5 incubated for 18 hrs by visual inspection method.
Assay [11] has as its system Escherichia coli. As to the kind of experiment: Antibacterial activity against ESBL Escherichia coli 3 incubated for 18 hrs by visual inspection method.
In assay [12] the test system is Acinetobacter baumannii. As to the kind of experiment: Antibacterial activity against multidrug resistant Acinetobacter baumannii 3 incubated for 18 hrs by visual inspection method.
Assay [13] concerns Escherichia coli. As to the kind of experiment: Antibacterial activity against ESBL Escherichia coli 1 incubated for 18 hrs by visual inspection method.
For assay [14], the system named is Escherichia coli. As to the kind of experiment: Antibacterial activity against ESBL Escherichia coli 2 incubated for 18 hrs by visual inspection method.
For assay [15], the system named is Escherichia coli. In words: Antibacterial activity against ESBL Escherichia coli 4 incubated for 18 hrs by visual inspection method.
Assay [16] concerns Acinetobacter baumannii. As to the kind of experiment: Antibacterial activity against multidrug resistant Acinetobacter baumannii 4 incubated for 18 hrs by visual inspection method.

MIC data for eleven compounds are collected here from ChEMBL document CHEMBL5614417, “Discovery of AMPs from random peptides via deep learning-based model and biological activity validation” (Eur J Med Chem, 2024).

Where a SMILES comes first, the peptide text is derived from it.

Broadly, the MIC is the lowest concentration that inhibits growth of the organism. A lower MIC goes with a more susceptible organism.

As to `CC[C@H](C)[C@H](NC(=O)[C@H](CCCCN)NC(=O)[C@H](Cc1c[nH]c2ccccc12)NC(=O)[C@H](C)NC(=O)[C@@H]1CCCN1C(=O)[C@H]1CCCN1C(=O)[C@@H](CC(C)C)NC(=O)[C@H](N)C(C)C)C(=O)N[C@@H](CCCCN)C(=O)N[C@@H](CCCCN)C(=O)NCC(=O)N[C@@H](Cc1ccccc1)C(=O)N[C@@H](CCC(N)=O)C(N)=O`, the MIC in assay [1], in assay [2], in assay [3], in assay [4], in assay [5] and in [6] was greater than 60 µg/mL each time.

Regarding `CC[C@H](C)[C@H](N)C(=O)N[C@H](C(=O)N[C@@H](Cc1ccccc1)C(=O)N[C@@H](CC(C)C)C(=O)N[C@H](C(=O)N[C@@H](CO)C(=O)NCC(=O)N[C@@H](Cc1ccccc1)C(=O)N[C@@H](CCCCN)C(=O)N[C@@H](CS)C(=O)N[C@@H](Cc1ccccc1)C(=O)N[C@@H](CCCCN)C(=O)NCC(N)=O)[C@@H](C)CC)C(C)C` (H-IVFLISGFKCFKG-NH2), the MIC in assay [1], in assay [2], in assay [3], in assay [4], in assay [5] and in assay [6] was greater than 60 µg/mL throughout.

For `CC[C@H](C)[C@H](NC(=O)CNC(=O)[C@@H](NC(=O)[C@H](Cc1ccccc1)NC(=O)[C@@H](NC(=O)[C@H](Cc1c[nH]cn1)NC(=O)[C@H](Cc1c[nH]c2ccccc12)NC(=O)[C@@H](NC(=O)[C@@H]1CCCN1)[C@@H](C)O)[C@@H](C)CC)[C@@H](C)CC)C(=O)N[C@@H](Cc1c[nH]c2ccccc12)C(=O)N[C@@H](CO)C(=O)N[C@@H](CS)C(=O)N[C@@H](Cc1c[nH]c2ccccc12)C(N)=O` (H-PTWHIFIGIWSCW-NH2), the MIC in assay [1], in [2], in [3], in assay [4], in assay [5] and in [6] was greater than 60 µg/mL each time.

With `CSCC[C@H](NC(=O)[C@H](Cc1c[nH]c2ccccc12)NC(=O)[C@H](CCSC)NC(=O)[C@H](Cc1c[nH]c2ccccc12)NC(=O)[C@@H](NC(=O)[C@H](Cc1c[nH]c2ccccc12)NC(=O)[C@H](Cc1c[nH]c2ccccc12)NC(=O)[C@H](CCSC)NC(=O)[C@H](CCCCN)NC(=O)[C@H](CS)NC(=O)CNC(=O)[C@H](Cc1ccccc1)NC(=O)[C@@H](N)CO)C(C)C)C(N)=O` (H-SFGCKMWWVWMWM-NH2), the MIC in [1], in assay [2], in assay [3], in [4], in assay [5] and in [6] was greater than 60 µg/mL throughout.

`CC[C@H](C)[C@H](NC(=O)[C@H](C)NC(=O)[C@H](Cc1c[nH]c2ccccc12)NC(=O)[C@H](CCCCN)NC(=O)[C@H](C)NC(=O)CNC(=O)[C@@H](NC(=O)[C@@H](N)CO)[C@@H](C)CC)C(=O)N[C@@H](Cc1c[nH]c2ccccc12)C(=O)N[C@@H](Cc1c[nH]c2ccccc12)C(=O)N[C@@H](Cc1c[nH]c2ccccc12)C(=O)N[C@@H](CCSC)C(=O)N[C@H](C(N)=O)C(C)C` (H-SIGAKWAIWWWMV-NH2): the MIC in assay [1], in [2], in assay [3], in assay [4], in [5] and in assay [6] was greater than 60 µg/mL throughout.

Turning to `CC(C)C[C@H](NC(=O)[C@H](CCCCN)NC(=O)[C@H](CS)NC(=O)[C@H](CS)NC(=O)[C@@H](NC(=O)CNC(=O)[C@@H](NC(=O)[C@H](Cc1ccccc1)NC(=O)[C@H](CCC(N)=O)NC(=O)[C@H](CS)NC(=O)[C@@H](N)Cc1c[nH]c2ccccc12)C(C)C)C(C)C)C(=O)N[C@@H](CS)C(=O)N[C@H](C(N)=O)C(C)C` (H-WCQFVGVCCKLCV-NH2), the MIC in assay [1], in assay [2], in assay [3], in assay [4], in assay [5] and in [6] was greater than 60 µg/mL throughout.

With `CC[C@H](C)[C@H](NC(=O)[C@H](CC(C)C)NC(=O)[C@H](CS)NC(=O)[C@@H]1CCCN1C(=O)[C@H](CC(C)C)NC(=O)[C@@H](NC(=O)[C@H](CS)NC(=O)[C@H](Cc1ccccc1)NC(=O)[C@@H](N)Cc1c[nH]c2ccccc12)[C@@H](C)CC)C(=O)N[C@@H](Cc1ccccc1)C(=O)N[C@@H](CCCCN)C(=O)N[C@@H](Cc1c[nH]c2ccccc12)C(=O)N[C@@H](CCC(N)=O)C(N)=O` (H-WFCILPCLIFKWQ-NH2), the MIC in [1], in assay [2], in [3], in assay [4], in [5] and in assay [6] was greater than 60 µg/mL each time.

Take `CC[C@H](C)[C@H](NC(=O)[C@@H](N)Cc1c[nH]c2ccccc12)C(=O)N[C@@H](Cc1c[nH]c2ccccc12)C(=O)N[C@H](C(=O)N[C@@H](Cc1ccccc1)C(=O)N[C@@H](CCCCN)C(=O)N[C@@H](Cc1c[nH]cn1)C(=O)N[C@@H](CC(C)C)C(=O)NCC(=O)N[C@@H](CS)C(=O)N[C@@H](CCC(N)=O)C(=O)N[C@@H](CCCCN)C(=O)N[C@@H](CCC(N)=O)C(N)=O)[C@@H](C)O` (H-WIWTFKHLGCQKQ-NH2): the minimal inhibitory concentration (MIC) in [1], in assay [2], in assay [3], in assay [4], in [5] and in assay [6] was greater than 60 µg/mL throughout.

As for `CC[C@H](C)[C@H](NC(=O)[C@H](CCCNC(=N)N)NC(=O)[C@H](Cc1c[nH]c2ccccc12)NC(=O)[C@@H](NC(=O)[C@H](Cc1c[nH]cn1)NC(=O)[C@H](Cc1c[nH]c2ccccc12)NC(=O)[C@@H](N)Cc1c[nH]c2ccccc12)[C@@H](C)CC)C(=O)N[C@@H](CO)C(=O)N[C@@H](CCSC)C(=O)N[C@@H](Cc1c[nH]c2ccccc12)C(=O)N[C@@H](CCSC)C(=O)N[C@@H](CS)C(=O)NCC(N)=O` (H-WWHIWRISMWMCG-NH2), the MIC in assay [1], in [2], in assay [3], in assay [4], in [5] and in [6] was greater than 60 µg/mL throughout.

GRAMICIDIN: the figures for the MIC in assay [2], in [3] and in [4] were 3.75 µg/mL, 1.88 µg/mL and 3.75 µg/mL, respectively.

In the case of POLYMYXIN B, the MIC in assay [1], in [7], in [8], in assay [9], in assay [5] and in assay [10] was 1.88 µg/mL each time. Besides, the minimum inhibitory concentration (MIC) in assay [11], in [12], in assay [6], in assay [13], in assay [14] and in [15] was 1.88 µg/mL each time. This compound had an MIC in assay [16] of 1.88 µg/mL.
